Source: publication PMC3709815, “Reconstructing a Flavodoxin Oxidoreductase with Early Amino Acids” (International Journal of Molecular Sciences, 2013)

Key:
Format in all cases: binding
[1] = molecular target: T1, Megasphaera elsdenii flavodoxin (apoflavodoxin) (Megasphaera elsdenii, UniProt P00321, C127V/C54A/F36V/F70L/F71L/F86V/M120V/M16L/M57V/M97L/W100V/W7V/W91V/W96V/Y6V/Y89V); test: calculated from Kd,ox and redox potential Em, […] (anaerobic dithionite titration with redox dyes); conditions: read-out: Kd,hq
T1 construct: synthetic gene in pET28b(+) NdeI/BamHI, 6xHis tag kept, E. coli BL21(DE3); apoprotein by trichloroacetic acid

[2] = molecular target: T2, Megasphaera elsdenii flavodoxin (apoflavodoxin) (Megasphaera elsdenii, UniProt P00321); test: far-UV circular dichroism of apo- and holoflavodoxin, reconstitution with FMN; conditions: oxidized state; holoprotein reconstituted with 1.0 mM FMN, 40 mM sodium phosphate pH 7.0
T2 construct: synthetic gene in pET28b(+) NdeI/BamHI, 6xHis tag kept, E. coli BL21(DE3); apoprotein by trichloroacetic acid

[3] = molecular target: T1, Megasphaera elsdenii flavodoxin (apoflavodoxin); test: fluorescence titration of FMN with apoflavodoxin (ex […] nm, em […] nm); conditions: read-out: Kd,ox

T1 sequence (P00321 other isoform, or with tags, fused parts or gaps with the stated changes): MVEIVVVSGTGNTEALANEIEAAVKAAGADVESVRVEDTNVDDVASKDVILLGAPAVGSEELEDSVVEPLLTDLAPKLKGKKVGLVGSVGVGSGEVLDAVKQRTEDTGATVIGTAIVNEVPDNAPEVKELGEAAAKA
T2 sequence (P00321 whole entry): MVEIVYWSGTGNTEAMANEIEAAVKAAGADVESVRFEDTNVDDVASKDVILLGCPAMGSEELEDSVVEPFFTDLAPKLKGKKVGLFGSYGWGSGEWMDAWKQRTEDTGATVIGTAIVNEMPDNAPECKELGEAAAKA

| Kd [1] [mM] | Kd [3] [mM] | Structure (SMILES) | far-UV circular dichroism of apo- and holoflavodoxin, reconstitution with FMN [2] |
| --- | --- | --- | --- |
| 43.6 |  | Cc1cc2c(cc1C)N(C[C@H](O)[C@H](O)[C@H](O)COP(=O)(O)O)c1[nH]c(=O)[nH]c(=O)c1N2 [FMNhq] |  |
|  | 0.00292 | Cc1cc2nc3c(=O)[nH]c(=O)nc-3n(C[C@H](O)[C@H](O)[C@H](O)COP(=O)(O)O)c2cc1C [FMN] | conformation transition of mutant and wild-type protein induced by FMN binding is different |
